For orientation: IC50 means the concentration at which inhibition is half-maximal.

The record followed here is patent publication US9284283B2, “Macrocyclic compounds for modulating IL-17” (ENSEMBLE THERAPEUTICS CORPORATION, priority 2012, dated 2016).

Assay [1] concerns IL-17A induced secretion of IL-6 in primary human RASF cells. Briefly: Inhibition of IL17A induced secretion of IL6 in human rheumatoid arthritis synovial fibroblast (RASF) cells. The format is cell-based. As to conditions: Homo sapiens, Fibroblast. The method, then:
This assay was used to determine the extent of inhibition of IL-17A induced secretion of IL-6 in primary human rheumatoid synovial fibroblast (RASF) cells by compounds of the invention. IL-17A is known to stimulate IL-6 production in RASF cells.
Low passage (passage 2-8) Primary human RASF cells (Asterand) were maintained in maintenance medium. Cells were detached from flasks by tryptic digestion and the cell density of the suspension determined. To each well of a 96 well culture plate was added 100 μL of seeding medium containing 50,000 cells/mL and the plate incubated overnight in a humidified 37° C., 5% CO2 incubator. The medium was replaced with fresh assay medium and cells were incubated for additional 5 hours in a humidified 37° C., 5% CO2 incubator prior to stimulation with recombinant human IL-17A (“rhIL-17A”). Prior to addition to cells, rhIL-17A (30 ng/mL) in assay medium was incubated with either DMSO alone, compounds, or anti-IL17 receptor antibody (3 μg/mL) for 1 hour at 37° C. The final concentration of DMSO in all samples was 0.25%. The final concentration of compounds varied from 0.03 μM to 25 μM.
Immediately before stimulation, cells were washed once with fresh assay medium. Then, 100 μL of the test samples was added in triplicate wells and the plates incubated for 20 hours in a humidified 37° C., 5% CO2 incubator. The assay medium from each well was collected and the IL-6 concentration in cell culture supernatants was determined by ELISA either immediately or after storage at −20° C.
A water-soluble tetrazolium salt (WST1) viability assay was immediately performed on the cells after the conditioned medium was collected using a WST1 reagent purchased from Roche. The concentration of IL-6 obtained from ELISA was normalized by the WST1 data.

Assay [2] deals with T1, biotinylated human IL-17 (binding to IL17R/Fc) (Homo sapiens, UniProt Q16552).
T1 construct: purchased R&D Systems 317-ILB (IL-17, biotinylated); 177-IR (IL17R/Fc)
T1 sequence (Q16552 20-155 limits assumed): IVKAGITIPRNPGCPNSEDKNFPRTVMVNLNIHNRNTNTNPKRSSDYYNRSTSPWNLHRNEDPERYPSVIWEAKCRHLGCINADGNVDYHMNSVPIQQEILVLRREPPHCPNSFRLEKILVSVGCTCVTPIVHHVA
The experiment in a line: IL-17 competition ELISA II (captured IL17R/Fc, biotinylated IL-17). In outline:
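Competition read-out: absorbance at 450 nm after streptavidin-HRP/TMB detection, fitted to a 4-parameter logistic model bounded by no-competitor and blank wells to give IC50. Compound was serially diluted 5-fold from 1 μM alongside 20 nM (stock) biotinylated IL-17 on IL17R/Fc (10 nM) captured via goat anti-human IgG, 30 min at room temperature.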
A general note: ELISA stands for enzyme-linked immunosorbent assay.

Where only a bound is given, the exact number is not on record here.

In the case of `O=C1CC2(CCCC2)CC(=O)N[C@H](Cc2ccc(NC(=O)[C@H](Cc3ccccc3Cl)NC(=O)Cc3ccc(F)cc3)cc2)C(=O)N[C@H](C2CCCCC2)C(=O)NCCCCCN1` [Compound 425], the IC50 in assay [1] was 100 to 1000 nM; in assay [2] it was < 100 nM.
As for `C[C@H]1NC(=O)[C@@H](Cc2ccc(NC(=O)[C@H](Cc3ccccc3Cl)NC(=O)C3(c4ccc(F)cc4)CC3)cc2)NC(=O)CC2(CCCC2)CC(=O)NCCCCCNC1=O` [Compound 427], the IC50 is 1000 to 10000 nM in assay [1] and < 100 nM in assay [2].
`C[C@H]1NC(=O)[C@@H](Cc2ccc(NC(=O)[C@H](Cc3ccccc3Cl)NC(=O)C(F)(F)c3ccccc3)cc2)NC(=O)CC2(CCCC2)CC(=O)NCCCCCNC1=O` [Compound 434]: the results for the IC50 in assay [1] and in assay [2] were 100 to 1000 nM and < 100 nM, respectively.
The corresponding values for `CN(C)CCOc1ccc(CC(=O)N[C@H](C(=O)Nc2ccc(C[C@H]3NC(=O)CC4(CCCC4)CC(=O)NCCCCCNC(=O)[C@@H](Cc4ccccc4)NC3=O)cc2)C2CCCCC2)cc1` [Compound 437] are 1000 to 10000 nM and 100 to 1000 nM.
For the compound `CN(CCOc1ccc(CC(=O)N[C@@H](Cc2ccccc2Cl)C(=O)Nc2ccc(C[C@H]3NC(=O)CC4(CCCC4)CC(=O)NCCCCCNC(=O)[C@@H](Cc4ccccc4)NC3=O)cc2)cc1)Cc1ccccc1` [Compound 438], the IC50 is 100 to 1000 nM in assay [1] and < 100 nM in assay [2].
Take `O=C1CC2(CCCC2)CC(=O)N[C@H](Cc2ccc(NC(=O)[C@H](Cc3ccccc3Cl)NC(=O)Cc3ccc(OCCN4CCOCC4)cc3)cc2)C(=O)N[C@H](Cc2ccccc2)C(=O)NCCCCCN1` [Compound 439]: the IC50 is 100 to 1000 nM in assay [1] and < 100 nM in assay [2].
Regarding `O=C1CC2(CCCC2)CC(=O)N[C@H](Cc2ccc(NC(=O)[C@H](Cc3ccccc3Cl)NC(=O)Cc3cccc(O)c3)cc2)C(=O)NCCCCCCCCN1` [Compound 441], the results for the IC50 in assay [1] and in assay [2] were 100 to 1000 nM and < 100 nM, respectively.
The corresponding values for `O=C1CC2(CCCC2)CC(=O)N[C@H](Cc2ccc(NC(=O)[C@H](Cc3ccccc3Cl)NC(=O)c3cccnc3)cc2)C(=O)NCCCCCCCCN1` [Compound 442] are 1000 to 10000 nM and < 100 nM.
The like results for `C[C@H]1NC(=O)[C@@H](Cc2ccc(NC(=O)[C@H](Cc3ccccc3Cl)NC(=O)Cc3ccccc3)cc2)NC(=O)CC2(CCCC2)CC(=O)NCCNCCNC1=O` [Compound 443] were, in that order, 100 to 1000 nM and < 100 nM.
`O=C1CC2(CCCC2)CC(=O)N[C@H](Cc2ccc(NC(=O)[C@H](Cc3ccccc3Cl)NC(=O)Cc3ccc(F)cc3)cc2)C(=O)NCC#CCCCCCN1` [Compound 446]: the IC50 in assay [1] was 100 to 1000 nM; in assay [2], < 100 nM.
On to `O=C1CC2(CCCC2)CC(=O)N[C@H](Cc2ccc(NC(=O)[C@H](Cc3ccccc3Cl)NC(=O)Cc3ccc(CO)cc3)cc2)C(=O)N[C@@H](CO)C(=O)NCCCC[C@@H](C(=O)O)N1` [Compound 455], for which the IC50 in assay [1] and in assay [2] was < 100 nM in each case.
With `CN1CCCCCNC(=O)CNC(=O)[C@@H](Cc2ccc(NC(=O)[C@H](Cc3ccccc3Cl)NC(=O)Cc3cccc(O)c3)cc2)NC(=O)CC2(CCCC2)CC1=O` [Compound 457], the IC50 in assay [1] is 1000 to 10000 nM; in assay [2] it was < 100 nM.
Consider `C[C@H]1NC(=O)[C@@H](Cc2ccc(NC(=O)[C@H](Cc3ccccc3Cl)NC(=O)Cc3ccc(F)cc3)cc2)NC(=O)CC2(CCCC2)CC(=O)N(C)CCCCCNC1=O` [Compound 469], for which the IC50 is 1000 to 10000 nM in assay [1] and < 100 nM in assay [2].
For the compound `C[C@H]1NC(=O)[C@@H](Cc2ccc(NC(=O)[C@H](Cc3ccccc3Cl)NC(=O)Cc3ccc(F)cc3)cc2)NC(=O)CC2(CCCC2)CC(=O)NCCCCCN(C)C1=O` [Compound 470], the figures for the IC50 in assay [1] and in assay [2] were 100 to 1000 nM and < 100 nM, respectively.
The corresponding values for `CN1CCCCCNC(=O)[C@@H](CCC(=O)O)NC(=O)[C@@H](Cc2ccc(NC(=O)[C@H](Cc3ccccc3Cl)NC(=O)Cc3cccc(O)c3)cc2)NC(=O)CC2(CCCC2)CC1=O` [Compound 473] are 100 to 1000 nM and < 100 nM.
Take `Cc1ccccc1C[C@H](NC(=O)Cc1ccc(F)cc1)C(=O)Nc1ccc(C[C@H]2NC(=O)CC3(CCCC3)CC(=O)NCCCCCNC(=O)[C@@H](C)NC2=O)cc1` [Compound 476]: the concentration for half-maximal inhibition (IC50) in assay [1] was 100 to 1000 nM; in assay [2], < 100 nM.
On to `Cc1ccccc1C[C@H](NC(=O)Cc1ccc(F)cc1)C(=O)Nc1ccc(C[C@H]2NC(=O)CC3(CCCC3)CC(=O)NCCOCCOCCNC2=O)cc1` [Compound 478], for which the figures for the concentration for half-maximal inhibition (IC50) in assay [1] and in assay [2] were 1000 to 10000 nM and < 100 nM, respectively.
The corresponding values for `NC(=O)CC[C@H]1NC(=O)[C@@H](Cc2ccc(NC(=O)[C@H](Cc3ccccc3Cl)NC(=O)Cc3ccc(F)cc3)cc2)NC(=O)CC2(CCCC2)CC(=O)NCCCCCNC1=O` [Compound 479] are < 100 nM and < 100 nM.
The like results for `C[C@H]1NC(=O)[C@@H](Cc2ccc(NC(=O)[C@H](Cc3ccccc3Cl)NC(=O)Cc3ccc(F)cc3)cc2)N(C)C(=O)CC2(CCCC2)CC(=O)N(C)CCCCCNC1=O` [Compound 480] were, in that order, 1000 to 10000 nM and < 100 nM.
The like results for `O=C1CC2(CCCC2)CC(=O)N[C@H](Cc2ccc(NC(=O)[C@H](Cc3ccccc3Cl)NC(=O)OCc3ccccc3)cc2)C(=O)NCCOCCOCCN1` [Compound 484] were, in that order, 100 to 1000 nM and < 100 nM.
In the case of `C[C@H]1NC(=O)[C@@H](Cc2ccc(NC(=O)[C@H](Cc3ccccc3Cl)NC(=O)Cc3ccc(CO)cc3)cc2)NC(=O)CC2(CCCC2)CC(=O)NCCCCCNC1=O` [Compound 487], the IC50 in assay [1] and in assay [2] was < 100 nM each time.
For the compound `C[C@H]1NC(=O)[C@@H](Cc2ccc(NC(=O)[C@H](Cc3ccccc3Cl)NC(=O)Cc3ccc(F)cc3)cc2)NC(=O)CC2(CCCC2)CC(=O)N(C)CCCCCN(C)C1=O` [Compound 488], the values for the IC50 in assay [1] and in assay [2] were 1000 to 10000 nM and < 100 nM, respectively.
For `O=C1CC2(CCCC2)CC(=O)N[C@H](Cc2ccc(NC(=O)[C@H](Cc3ccccc3Cl)NC(=O)Cc3ccc(F)cc3)cc2)C(=O)NCCOCCOCCN1` [Compound 490], the IC50 in assay [1] was 1000 to 10000 nM; in assay [2] it was < 100 nM.
Regarding `Cc1ccc(CC(=O)N[C@@H](Cc2ccccc2Cl)C(=O)Nc2ccc(C[C@H]3NC(=O)CC4(CCCC4)CC(=O)NCCOCCOCCNC3=O)cc2)cc1` [Compound 494], the values for the IC50 in assay [1] and in assay [2] were 100 to 1000 nM and < 100 nM, respectively.
On to `Cc1ccccc1CC(=O)N[C@@H](Cc1ccccc1Cl)C(=O)Nc1ccc(C[C@H]2NC(=O)CC3(CCCC3)CC(=O)NCCOCCOCCNC2=O)cc1` [Compound 495], for which the 50% inhibitory concentration (IC50) in assay [1] is 1000 to 10000 nM; in assay [2], < 100 nM.
The like results for `O=C1CC2(CCCC2)CC(=O)N[C@H](Cc2ccc(NC(=O)[C@H](Cc3ccccc3Cl)NC(=O)Cc3ccc(F)cc3)cc2)C(=O)NCC#CCCCCN1` [Compound 497] were, in that order, 1000 to 10000 nM and < 100 nM.
On to `O=C1CC2(CCCC2)CC(=O)N[C@H](Cc2ccc(NC(=O)[C@H](Cc3ccccc3Cl)NC(=O)Cc3ccc(F)cc3)cc2)C(=O)N[C@H](CC2CCCCC2)C(=O)NCCCCCN1` [Compound 499], for which the concentration for half-maximal inhibition (IC50) in assay [1] was 100 to 1000 nM; in assay [2] it was < 100 nM.
The like results for `O=C1CC2(CCCC2)CC(=O)N[C@H](Cc2ccc(NC(=O)[C@H](Cc3ccc(F)cc3Cl)NC(=O)Cc3ccc(F)cc3)cc2)C(=O)NCCOCCOCCN1` [Compound 502] were, in that order, 1000 to 10000 nM and < 100 nM.
Turning to `C[C@H]1NC(=O)[C@@H](Cc2ccc(NC(=O)[C@H](Cc3ccccc3C(F)(F)F)NC(=O)C3(c4ccc(F)cc4)CC3)cc2)NC(=O)CC2(CCCC2)CC(=O)N(C)CCCCCNC1=O` [Compound 507], the IC50 is 1000 to 10000 nM in assay [1] and < 100 nM in assay [2].
In the case of `C[C@H]1NC(=O)[C@@H](Cc2ccc(NC(=O)[C@H](Cc3ccccc3Cl)NC(=O)C3(c4ccc(F)cc4)CC3)cc2)NC(=O)CC2(CCCC2)CC(=O)N[C@H](C(=O)O)CCCCNC1=O` [Compound 513], the IC50 in assay [1] was 100 to 1000 nM; in assay [2], < 100 nM.
The corresponding values for `Cc1ccccc1C[C@H](NC(=O)Cc1ccc(F)cc1)C(=O)Nc1ccc(C[C@H]2NC(=O)CC3(CCCC3)CC(=O)NCCCCCNC(=O)[C@@H](CCC(N)=O)NC2=O)cc1` [Compound 515] are < 100 nM and < 100 nM.
The corresponding values for `O=C1CC2(CCCC2)CC(=O)N[C@H](Cc2ccc(NC(=O)[C@H](Cc3ccccc3Cl)NC(=O)c3ccccc3)cc2)C(=O)NCCOCCOCCN1` [Compound 522] are 1000 to 10000 nM and < 100 nM.
